{
  "source": "patent US20110124692A1",
  "about": "“CRYSTALLINE FORMS OF THIAZOLIDINEDIONE COMPOUND AND ITS MANUFACTURING METHOD” (DAIICHI SANKYO COMPANY, LIMITED, priority 2008, published 2011)",
  "key": {"[1]": {"assay": "Solubility in dilute hydrochloric acid (Test Example 3)", "format": "physicochemical", "settings": "for The concentration (mg/g) of 5-(4-{[6-(4-amino-3,5-dimethylphenoxy)-1-methyl-1-H-benzimidazol-2-yl]methoxy}benzyl)-1,3-thiazolidine-2,4-dione in dilute hydrochloric acid: dilute hydrochloric acid 9.6 mg/g (pH about 0.7), 25° C., 500 mg in 5 mL, sampled after 6 minutes; for Concentration in dilute hydrochloric acid compared with the other crystalline forms: comparison of Table 7", "procedure": "The concentration was measured under the test conditions below.\nThe concentration is calculated from the following formula."}, "[2]": {"molecular_target": "T1, peroxisome proliferator-activated receptor (PPAR) γ (Homo sapiens, UniProt P37231)", "T1 sequence (P37231 1-505)": "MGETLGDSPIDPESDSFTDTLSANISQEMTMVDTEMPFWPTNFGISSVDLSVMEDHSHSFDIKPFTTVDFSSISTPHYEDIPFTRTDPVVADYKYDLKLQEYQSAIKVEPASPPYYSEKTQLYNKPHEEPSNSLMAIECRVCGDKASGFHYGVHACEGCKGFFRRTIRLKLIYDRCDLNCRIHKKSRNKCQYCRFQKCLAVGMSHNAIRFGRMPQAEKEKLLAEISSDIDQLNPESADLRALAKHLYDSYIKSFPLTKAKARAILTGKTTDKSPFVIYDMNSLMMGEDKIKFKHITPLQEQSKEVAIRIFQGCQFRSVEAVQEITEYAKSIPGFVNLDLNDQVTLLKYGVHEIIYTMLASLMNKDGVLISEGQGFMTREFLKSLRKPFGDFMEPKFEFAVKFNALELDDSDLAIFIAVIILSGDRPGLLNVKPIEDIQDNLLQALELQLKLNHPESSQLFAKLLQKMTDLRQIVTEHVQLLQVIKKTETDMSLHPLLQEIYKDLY", "settings": "as disclosed in Patent Documents 1-5; cited from earlier work"}, "[3]": {"settings": "in vivo; cited from earlier work"}, "human leukemia cells": {"test_system": "human leukemia cells", "settings": "cited from earlier work"}, "[4]": {"test_system": "human non-small-cell lung cancer", "settings": "cited from earlier work"}, "[5]": {"test_system": "human colon cancer cell lines", "settings": "against human colon cancer cell lines; cited from earlier work"}, "human kidney cancer": {"test_system": "human kidney cancer", "settings": "cited from earlier work"}, "cancer cells [6]": {"test_system": "cancer cells", "settings": "in combination with a VEGFR inhibitor or a Raf kinase inhibitor; cited from earlier work"}, "[7]": {"test_system": "human stomach cancer cells, human breast cancer cells, small cell lung cancer, pancreas cancer cells, prostate cancer cells, kidney cancer cells …", "settings": "medulloblastoma, sarcoma cells, multiple myeloma; cited from earlier work"}, "cancer cells [8]": {"test_system": "cancer cells", "settings": "in combination with an epidermal growth factor receptor (EGFR) inhibitor; cited from earlier work"}},
  "note": "Where a name gives a salt, the structure may show the parent alone. Read-outs that look alike come from different tables or passages of the source.",
  "data": [
    {"molecule": "Cc1cc(Oc2ccc3nc(COc4ccc(CC5SC(=O)NC5=O)cc4)n(C)c3c2)cc(C)c1N", "note": "(stereo not shown) [5-(4-{[6-(4-amino-3,5-dimethylphenoxy)-1-methyl-1-H-benzimidazol-2-yl]methoxy}benzyl)-1,3-thiazolidine-2,4-dione monohydrate]", "values": [
      {"measurement": "The concentration (mg/g) of 5-(4-{[6-(4-amino-3,5-dimethylphenoxy)-1-methyl-1-H-benzimidazol-2-yl]methoxy}benzyl)-1,3-thiazolidine-2,4-dione in dilute hydrochloric acid", "setting": "[1]; monohydrate", "value": 0.579, "unit": "mg/g"},
      {"measurement": "Concentration in dilute hydrochloric acid compared with the other crystalline forms", "setting": "[1]; listed as free-form crystalline form, monohydrate", "value": "higher concentration than all the dihydrochloride monohydrate crystalline forms"}
    ]},
    {"molecule": "Cc1cc(Oc2ccc3nc(COc4ccc(CC5SC(=O)NC5=O)cc4)n(C)c3c2)cc(C)c1N", "note": "(stereo not shown) [Compound (I), 5-(4-{[6-(4-amino-3,5-dimethylphenoxy)-1-methyl-1-H-benzimidazol-2-yl]methoxy}benzyl)-1,3-thiazolidine-2,4-dione]", "values": [
      {"measurement": "Ability to activate PPAR γ", "setting": "[2]", "value": "significant ability to activate"},
      {"measurement": "Activity to ameliorate insulin resistance and to reduce blood sugar", "setting": "[3]", "value": "significant activity to ameliorate insulin resistance and to reduce blood sugar"}
    ]},
    {"molecule": "Cc1cc(Oc2ccc3nc(COc4ccc(CC5SC(=O)NC5=O)cc4)n(C)c3c2)cc(C)c1N", "note": "(stereo not shown) [Crystalline form A manufactured according to Example 4] [5-(4-{[6-(4-amino-3,5-dimethylphenoxy)-1-methyl-1-H-benzimidazol-2-yl]methoxy}benzyl)-1,3-thiazolidine-2,4-dione dihydrochloride monohydrate]", "values": [
      {"measurement": "The concentration (mg/g) of 5-(4-{[6-(4-amino-3,5-dimethylphenoxy)-1-methyl-1-H-benzimidazol-2-yl]methoxy}benzyl)-1,3-thiazolidine-2,4-dione in dilute hydrochloric acid", "setting": "[1]; dihydrochloride monohydrate", "value": 0.325, "unit": "mg/g"},
      {"measurement": "Concentration in dilute hydrochloric acid compared with the other crystalline forms", "setting": "[1]; dihydrochloride monohydrate", "value": "highest concentration among the dihydrochloride monohydrate crystalline forms"}
    ]},
    {"molecule": "Cc1cc(Oc2ccc3nc(COc4ccc(CC5SC(=O)NC5=O)cc4)n(C)c3c2)cc(C)c1N", "note": "(stereo not shown) [Crystalline form manufactured according to Example (2-1)] [5-(4-{[6-(4-amino-3,5-dimethylphenoxy)-1-methyl-1-H-benzimidazol-2-yl]methoxy}benzyl)-1,3-thiazolidine-2,4-dione dihydrochloride monohydrate]", "values": [
      {"measurement": "The concentration (mg/g) of 5-(4-{[6-(4-amino-3,5-dimethylphenoxy)-1-methyl-1-H-benzimidazol-2-yl]methoxy}benzyl)-1,3-thiazolidine-2,4-dione in dilute hydrochloric acid", "setting": "[1]; dihydrochloride monohydrate", "value": 0.276, "unit": "mg/g"}
    ]},
    {"molecule": "Cc1cc(Oc2ccc3nc(COc4ccc(CC5SC(=O)NC5=O)cc4)n(C)c3c2)cc(C)c1N", "note": "(stereo not shown) [dihydrochloride of Compound (I), 5-(4-{[6-(4-amino-3,5-dimethylphenoxy)-1-methyl-1-H-benzimidazol-2-yl]methoxy}benzyl)-1,3-thiazolidine-2,4-dione dihydrochloride]", "values": [
      {"measurement": "Growth inhibition of human leukemia cells", "setting": "human leukemia cells", "value": "significantly inhibits the growth-inhibiting activity"},
      {"measurement": "Antitumor activity", "setting": "[4]; alone", "value": "has antitumor activity"},
      {"measurement": "Antitumor activity in combination", "setting": "[4]; in combination with an EGFR inhibitor", "value": "enhanced antitumor activity"},
      {"measurement": "Antitumor activity in vivo", "setting": "[5]", "value": "significant antitumor activity in vivo"},
      {"measurement": "Antitumor activity", "setting": "human kidney cancer; alone", "value": "has antitumor activity"},
      {"measurement": "Antitumor activity in combination", "setting": "human kidney cancer; in combination with a VEGFR inhibitor or a Raf kinase inhibitor", "value": "enhanced antitumor activity"},
      {"measurement": "Activity to inhibit the growth of cancer cells in combination", "setting": "cancer cells [6]", "value": "synergistic activity to inhibit the growth of cancer cells"},
      {"measurement": "Activity to inhibit the growth of cancer cells", "setting": "[7]", "value": "significant activity to inhibit the growth"},
      {"measurement": "Activity to inhibit the growth of cancer cells in combination", "setting": "cancer cells [8]", "value": "synergistic activity to inhibit the growth of cancer cells"}
    ]}
  ]
}
